Test results from patent KR20160066169A, “이카리시드 b2를 유효성분으로 함유하는 백모 방지용 및 백반증 개선용 조성물” ((주)아모레퍼시픽, priority 2014, dated 2016).
Where two headings read alike, the source gives them in different places.

Legend:
Type in all cases: cell-based
[1] = tested on: tyrosinase [티로시나제(tyrosinase)]; test: 멜라노사이트에서의 티로시나제 발현 촉진 효과 (western blot, 501mel); conditions: for activity at 100 µM / activity at 50 ppm: IBMX 100 μM, icariside B2 50 ppm, negative control (DMSO 0.1%) = 100, read-out: tyrosinase expression relative to negative control
[2] = tested on: melanocytes (melan-a) [멜라닌 세포(melan-a)]; test: 멜라닌 생성 촉진 효과 시험 (melanin production promoting effect, absorbance at 405 nm); conditions: 3 days
MITF = test: 멜라노사이트에서의 MITF 발현 촉진 효과 (western blot, 501mel); conditions: for activity at 100 µM / activity at 50 ppm: IBMX 100 μM, icariside B2 50 ppm, negative control (DMSO 0.1%) = 100, read-out: MITF expression relative to negative control

CC(C)Cn1c(=O)n(C)c(=O)c2[nH]cnc21 [IBMX, 3-isobutyl-1-methylxanthine, reference compound]
activity at 100 µM ([1]; 24 h): 160%
activity at 100 µM ([1]; 48 h): 149%
activity at 100 µM ([1]; 72 h): 298%
activity at 100 µM ([2]; 72 h, IBMX 100 μM, 37℃, negative control (0.1% DMSO) = 100, read-out: ratio of melanin quantity to negative control): 116%
activity at 100 µM (MITF; 24 h): 121%
activity at 100 µM (MITF; 48 h): 98%
activity at 100 µM (MITF; 72 h): 224%

CC(=O)C=CC12OC1(C)CC(OC1OC(CO)C(O)C(O)C1O)CC2(C)C (stereo not shown) [이카리시드 B2, icariside B2]
tyrosinase protein expression (result in words) ([1]; 50 ppm, 24-72 h): 단백질 발현을 상승시킴
activity at 50 ppm ([1]; 24 h): 126%
activity at 50 ppm ([1]; 48 h): 132%
activity at 50 ppm ([1]; 72 h): 180%
melanin production promoting effect compared with positive control (result in words) ([2]; 100 ppm vs IBMX 100 μM): 양성대조군보다 높은 멜라닌 생성 촉진 효과
activity at 50 ppm ([2]; 72 h, 50 ppm, 37℃, negative control (0.1% DMSO) = 100, read-out: ratio of melanin quantity to negative control): 103%
activity at 100 ppm ([2]; 72 h, 100 ppm, 37℃, negative control (0.1% DMSO) = 100, read-out: ratio of melanin quantity to negative control): 127%
melanin production (result in words) [2]: 멜라닌 생성이 늘어났으며
MITF protein expression (result in words) (MITF; 50 ppm, 24-72 h): 단백질 발현을 상승시킴
activity at 50 ppm (MITF; 24 h): 85%
activity at 50 ppm (MITF; 48 h): 107%
activity at 50 ppm (MITF; 72 h): 115%
